# Assays:
# Assay in all cases: KINOMEscan
# Format in all cases: binding
# Conditions in all cases: 1.0 µM
# [1] = target: T1, CDK7 (Homo sapiens, UniProt P50613)
# T1 construct: purchased Eurofins/DiscoverX KINOMEscan scanMAX
# Procedure: (§1) Kinase retention to the immobilized ligand is then measured using quantitative real-time PCR for each kinase-specific DNA barcode.
# [2] = target: T2, MET(Y1235D) (Homo sapiens, UniProt P08581, Y1235D)
# T2 construct: purchased Eurofins/DiscoverX KINOMEscan scanMAX
# Procedure: as §1
# [3] = target: T3, PRKD1 (Homo sapiens, UniProt Q15139)
# T3 construct: purchased Eurofins/DiscoverX KINOMEscan scanMAX
# Procedure: as §1
# [4] = target: T4, TSSK3 (Homo sapiens, UniProt Q96PN8)
# T4 construct: DNA tag (qPCR barcode); purchased Eurofins/DiscoverX KINOMEscan scanMAX
# Procedure: as §1
# [5] = target: T5, MAPKAPK2 (Homo sapiens, UniProt P49137)
# T5 construct: purchased Eurofins/DiscoverX KINOMEscan scanMAX
# Procedure: as §1
# [6] = target: T6, EPHA3 (Homo sapiens, UniProt P29320)
# T6 construct: purchased Eurofins/DiscoverX KINOMEscan scanMAX
# Procedure: as §1
# [7] = target: T7, SgK110 (Homo sapiens, UniProt P0C264)
# T7 construct: purchased Eurofins/DiscoverX KINOMEscan scanMAX
# Procedure: as §1
# [8] = target: T8, LTK (Homo sapiens, UniProt P29376)
# T8 construct: purchased Eurofins/DiscoverX KINOMEscan scanMAX
# Procedure: as §1
# [9] = target: T9, RET(V804M) (Homo sapiens, UniProt P07949, V804M)
# T9 construct: purchased Eurofins/DiscoverX KINOMEscan scanMAX
# Procedure: as §1
# [10] = target: T10, PDPK1 (Homo sapiens, UniProt O15530)
# T10 construct: purchased Eurofins/DiscoverX KINOMEscan scanMAX
# Procedure: as §1
# [11] = target: T11, GRK7 (Homo sapiens, UniProt Q8WTQ7)
# T11 construct: purchased Eurofins/DiscoverX KINOMEscan scanMAX
# Procedure: as §1
# [12] = target: T12, ERBB2 (Homo sapiens, UniProt P04626)
# T12 construct: purchased Eurofins/DiscoverX KINOMEscan scanMAX
# Procedure: as §1
# [13] = target: T13, PKAC-beta (Homo sapiens, UniProt P22694)
# T13 construct: purchased Eurofins/DiscoverX KINOMEscan scanMAX
# Procedure: as §1
# [14] = target: T14, MEK6 (Homo sapiens, UniProt P52564)
# T14 construct: purchased Eurofins/DiscoverX KINOMEscan scanMAX
# Procedure: as §1
# [15] = target: T15, CLK2 (Homo sapiens, UniProt P49760)
# T15 construct: purchased Eurofins/DiscoverX KINOMEscan scanMAX
# Procedure: as §1
# [16] = target: T16, MLCK (Homo sapiens, UniProt Q32MK0)
# T16 construct: purchased Eurofins/DiscoverX KINOMEscan scanMAX
# Procedure: as §1
# [17] = target: T17, CTK (Homo sapiens, UniProt P42679)
# T17 construct: purchased Eurofins/DiscoverX KINOMEscan scanMAX
# Procedure: as §1
# [18] = target: T18, PKN1 (Homo sapiens, UniProt Q16512)
# T18 construct: purchased Eurofins/DiscoverX KINOMEscan scanMAX
# Procedure: as §1
# [19] = target: T19, PIK3CA(E542K) (Homo sapiens, UniProt P42336, E542K)
# T19 construct: purchased Eurofins/DiscoverX KINOMEscan scanMAX
# Procedure: as §1
# [20] = target: T20, NDR1 (Homo sapiens, UniProt Q15208)
# T20 construct: purchased Eurofins/DiscoverX KINOMEscan scanMAX
# Procedure: as §1
# [21] = target: T21, BRSK2 (Homo sapiens, UniProt Q8IWQ3)
# T21 construct: purchased Eurofins/DiscoverX KINOMEscan scanMAX
# Procedure: as §1
# [22] = target: T22, CSNK1G1 (Homo sapiens, UniProt Q9HCP0)
# T22 construct: purchased Eurofins/DiscoverX KINOMEscan scanMAX
# Procedure: as §1
# [23] = target: T23, IRAK3 (Homo sapiens, UniProt Q9Y616)
# T23 construct: purchased Eurofins/DiscoverX KINOMEscan scanMAX
# Procedure: as §1
# [24] = target: T24, DAPK3 (Homo sapiens, UniProt O43293)
# T24 construct: purchased Eurofins/DiscoverX KINOMEscan scanMAX
# Procedure: as §1
# [25] = target: T25, BLK (Homo sapiens, UniProt P51451)
# T25 construct: purchased Eurofins/DiscoverX KINOMEscan scanMAX
# Procedure: as §1
# [26] = target: T26, AMPK-alpha1 (Homo sapiens, UniProt Q13131)
# T26 construct: purchased Eurofins/DiscoverX KINOMEscan scanMAX
# Procedure: as §1
# [27] = target: T27, DAPK1 (Homo sapiens, UniProt P53355)
# T27 construct: purchased Eurofins/DiscoverX KINOMEscan scanMAX
# Procedure: as §1
# [28] = target: T28, ABL1(H396P)-nonphosphorylated (Homo sapiens, UniProt P00519, H396P)
# T28 construct: purchased Eurofins/DiscoverX KINOMEscan scanMAX
# Procedure: as §1
# [29] = target: T29, KIT (Homo sapiens, UniProt P10721)
# T29 construct: purchased Eurofins/DiscoverX KINOMEscan scanMAX
# Procedure: as §1
# [30] = target: T30, TESK1 (Homo sapiens, UniProt Q15569)
# T30 construct: purchased Eurofins/DiscoverX KINOMEscan scanMAX
# Procedure: as §1
# [31] = target: T31, TXK (Homo sapiens, UniProt P42681)
# T31 construct: DNA tag (qPCR barcode); purchased Eurofins/DiscoverX KINOMEscan scanMAX
# Procedure: as §1
# [32] = target: T32, GRK4 (Homo sapiens, UniProt P32298)
# T32 construct: purchased Eurofins/DiscoverX KINOMEscan scanMAX
# Procedure: as §1
# [33] = target: T33, EPHA8 (Homo sapiens, UniProt P29322)
# T33 construct: purchased Eurofins/DiscoverX KINOMEscan scanMAX
# Procedure: as §1
# [34] = target: T34, ZAK (Homo sapiens, UniProt Q9NYL2)
# T34 construct: purchased Eurofins/DiscoverX (KINOMEscan scanMAX service)
# Procedure: as §1
# [35] = target: T35, KIT(L576P) (Homo sapiens, UniProt P10721, L576P)
# T35 construct: purchased Eurofins/DiscoverX KINOMEscan scanMAX
# Procedure: as §1
# [36] = target: T36, AAK1 (Homo sapiens, UniProt Q2M2I8)
# T36 construct: purchased Eurofins/DiscoverX KINOMEscan scanMAX
# Procedure: as §1
# [37] = target: T37, FLT3(R834Q) (Homo sapiens, UniProt P36888, R834Q)
# T37 construct: purchased Eurofins/DiscoverX KINOMEscan scanMAX
# Procedure: as §1
# [38] = target: T38, CDKL2 (Homo sapiens, UniProt Q92772)
# T38 construct: purchased Eurofins/DiscoverX KINOMEscan scanMAX
# Procedure: as §1
# [39] = target: T39, RSK2(Kin.Dom.1-N-terminal) (Homo sapiens, UniProt P51812)
# T39 construct: RSK2(Kin.Dom.1-N-terminal); purchased Eurofins/DiscoverX KINOMEscan scanMAX
# Procedure: as §1
# [40] = target: T40, LATS2 (Homo sapiens, UniProt Q9NRM7)
# T40 construct: purchased Eurofins/DiscoverX KINOMEscan scanMAX
# Procedure: as §1
# [41] = target: T41, ABL1(T315I)-nonphosphorylated (Homo sapiens, UniProt P00519, T315I)
# T41 construct: purchased Eurofins/DiscoverX KINOMEscan scanMAX
# Procedure: as §1
# T3 sequence (Q15139 whole entry): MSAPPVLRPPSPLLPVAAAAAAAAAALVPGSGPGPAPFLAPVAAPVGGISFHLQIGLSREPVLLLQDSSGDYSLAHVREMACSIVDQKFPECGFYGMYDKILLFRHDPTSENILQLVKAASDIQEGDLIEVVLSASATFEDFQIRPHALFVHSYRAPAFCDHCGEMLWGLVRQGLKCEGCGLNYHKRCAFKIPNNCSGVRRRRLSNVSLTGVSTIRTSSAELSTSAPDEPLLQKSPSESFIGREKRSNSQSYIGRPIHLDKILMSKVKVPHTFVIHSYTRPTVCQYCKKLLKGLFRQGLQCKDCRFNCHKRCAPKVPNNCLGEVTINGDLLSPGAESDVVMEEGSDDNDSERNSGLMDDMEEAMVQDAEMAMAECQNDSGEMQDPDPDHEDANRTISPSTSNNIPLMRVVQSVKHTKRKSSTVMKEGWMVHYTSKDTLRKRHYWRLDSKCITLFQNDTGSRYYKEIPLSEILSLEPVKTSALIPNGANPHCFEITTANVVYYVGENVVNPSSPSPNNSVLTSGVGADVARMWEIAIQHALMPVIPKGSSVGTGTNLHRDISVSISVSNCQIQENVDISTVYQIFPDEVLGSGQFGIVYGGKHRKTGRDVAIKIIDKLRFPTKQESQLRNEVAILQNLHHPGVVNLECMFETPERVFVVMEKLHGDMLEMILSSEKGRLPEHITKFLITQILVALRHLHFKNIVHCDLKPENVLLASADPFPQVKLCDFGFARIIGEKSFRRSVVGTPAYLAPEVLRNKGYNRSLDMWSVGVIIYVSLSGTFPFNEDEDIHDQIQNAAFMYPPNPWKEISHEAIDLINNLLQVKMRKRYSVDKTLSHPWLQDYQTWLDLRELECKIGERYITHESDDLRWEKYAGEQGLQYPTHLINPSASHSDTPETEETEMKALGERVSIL
# T27 sequence (P53355 whole entry): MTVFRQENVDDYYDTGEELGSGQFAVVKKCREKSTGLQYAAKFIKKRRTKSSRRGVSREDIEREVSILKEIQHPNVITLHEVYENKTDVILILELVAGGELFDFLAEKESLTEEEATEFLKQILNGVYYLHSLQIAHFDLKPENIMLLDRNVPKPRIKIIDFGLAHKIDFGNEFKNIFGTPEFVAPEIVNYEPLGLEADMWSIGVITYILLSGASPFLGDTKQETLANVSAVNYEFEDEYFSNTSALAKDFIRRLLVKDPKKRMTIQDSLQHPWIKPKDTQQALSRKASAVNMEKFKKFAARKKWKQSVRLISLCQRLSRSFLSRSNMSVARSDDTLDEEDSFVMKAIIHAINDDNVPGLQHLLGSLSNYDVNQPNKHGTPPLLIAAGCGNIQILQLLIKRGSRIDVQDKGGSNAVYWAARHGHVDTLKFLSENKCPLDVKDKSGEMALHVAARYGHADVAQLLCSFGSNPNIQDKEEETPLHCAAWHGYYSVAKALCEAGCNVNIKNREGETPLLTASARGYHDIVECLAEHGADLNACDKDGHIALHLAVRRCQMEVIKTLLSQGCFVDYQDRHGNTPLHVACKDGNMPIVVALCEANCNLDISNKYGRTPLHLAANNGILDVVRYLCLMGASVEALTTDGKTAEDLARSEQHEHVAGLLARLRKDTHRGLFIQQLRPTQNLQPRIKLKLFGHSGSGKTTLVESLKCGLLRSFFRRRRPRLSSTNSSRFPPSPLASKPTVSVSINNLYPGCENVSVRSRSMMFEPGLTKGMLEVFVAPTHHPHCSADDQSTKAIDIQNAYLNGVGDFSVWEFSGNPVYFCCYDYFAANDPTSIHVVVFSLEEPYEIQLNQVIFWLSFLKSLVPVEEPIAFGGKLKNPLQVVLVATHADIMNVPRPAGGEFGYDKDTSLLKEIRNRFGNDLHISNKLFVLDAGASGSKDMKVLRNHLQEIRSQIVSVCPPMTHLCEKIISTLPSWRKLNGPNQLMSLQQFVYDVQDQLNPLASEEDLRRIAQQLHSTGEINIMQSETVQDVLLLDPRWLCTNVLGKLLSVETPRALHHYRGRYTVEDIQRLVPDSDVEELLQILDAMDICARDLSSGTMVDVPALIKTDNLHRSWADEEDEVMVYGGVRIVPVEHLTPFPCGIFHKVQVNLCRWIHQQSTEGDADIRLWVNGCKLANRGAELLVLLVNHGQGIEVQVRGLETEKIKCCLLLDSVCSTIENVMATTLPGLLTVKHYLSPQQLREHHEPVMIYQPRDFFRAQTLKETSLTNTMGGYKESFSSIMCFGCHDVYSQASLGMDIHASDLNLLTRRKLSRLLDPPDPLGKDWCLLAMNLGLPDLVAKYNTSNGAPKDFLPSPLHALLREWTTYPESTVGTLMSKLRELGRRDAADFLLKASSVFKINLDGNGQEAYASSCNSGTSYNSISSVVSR
# T4 sequence (Q96PN8 whole entry): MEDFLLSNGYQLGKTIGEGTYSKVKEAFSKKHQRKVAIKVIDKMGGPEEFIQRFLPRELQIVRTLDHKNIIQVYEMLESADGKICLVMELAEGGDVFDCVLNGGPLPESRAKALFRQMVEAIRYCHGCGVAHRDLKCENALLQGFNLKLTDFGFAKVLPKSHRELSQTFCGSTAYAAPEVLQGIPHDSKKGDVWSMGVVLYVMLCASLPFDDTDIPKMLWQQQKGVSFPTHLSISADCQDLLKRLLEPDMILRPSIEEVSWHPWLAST
# T32 sequence (P32298 whole entry): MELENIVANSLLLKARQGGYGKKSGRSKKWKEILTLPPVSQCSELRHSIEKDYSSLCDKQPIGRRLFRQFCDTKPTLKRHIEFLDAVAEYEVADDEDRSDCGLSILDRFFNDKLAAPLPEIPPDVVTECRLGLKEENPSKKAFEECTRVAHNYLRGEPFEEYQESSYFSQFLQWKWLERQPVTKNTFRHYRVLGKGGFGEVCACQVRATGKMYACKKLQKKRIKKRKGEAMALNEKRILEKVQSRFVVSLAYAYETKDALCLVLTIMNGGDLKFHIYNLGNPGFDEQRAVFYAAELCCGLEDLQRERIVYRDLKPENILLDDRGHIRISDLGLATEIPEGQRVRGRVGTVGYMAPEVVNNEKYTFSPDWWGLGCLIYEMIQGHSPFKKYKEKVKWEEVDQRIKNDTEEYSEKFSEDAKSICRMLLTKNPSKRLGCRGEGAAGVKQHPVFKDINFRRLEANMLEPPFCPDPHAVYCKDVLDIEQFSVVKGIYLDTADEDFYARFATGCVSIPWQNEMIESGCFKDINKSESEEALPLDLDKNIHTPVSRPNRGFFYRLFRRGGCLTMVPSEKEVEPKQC
# T19 sequence (P42336 whole entry E542K): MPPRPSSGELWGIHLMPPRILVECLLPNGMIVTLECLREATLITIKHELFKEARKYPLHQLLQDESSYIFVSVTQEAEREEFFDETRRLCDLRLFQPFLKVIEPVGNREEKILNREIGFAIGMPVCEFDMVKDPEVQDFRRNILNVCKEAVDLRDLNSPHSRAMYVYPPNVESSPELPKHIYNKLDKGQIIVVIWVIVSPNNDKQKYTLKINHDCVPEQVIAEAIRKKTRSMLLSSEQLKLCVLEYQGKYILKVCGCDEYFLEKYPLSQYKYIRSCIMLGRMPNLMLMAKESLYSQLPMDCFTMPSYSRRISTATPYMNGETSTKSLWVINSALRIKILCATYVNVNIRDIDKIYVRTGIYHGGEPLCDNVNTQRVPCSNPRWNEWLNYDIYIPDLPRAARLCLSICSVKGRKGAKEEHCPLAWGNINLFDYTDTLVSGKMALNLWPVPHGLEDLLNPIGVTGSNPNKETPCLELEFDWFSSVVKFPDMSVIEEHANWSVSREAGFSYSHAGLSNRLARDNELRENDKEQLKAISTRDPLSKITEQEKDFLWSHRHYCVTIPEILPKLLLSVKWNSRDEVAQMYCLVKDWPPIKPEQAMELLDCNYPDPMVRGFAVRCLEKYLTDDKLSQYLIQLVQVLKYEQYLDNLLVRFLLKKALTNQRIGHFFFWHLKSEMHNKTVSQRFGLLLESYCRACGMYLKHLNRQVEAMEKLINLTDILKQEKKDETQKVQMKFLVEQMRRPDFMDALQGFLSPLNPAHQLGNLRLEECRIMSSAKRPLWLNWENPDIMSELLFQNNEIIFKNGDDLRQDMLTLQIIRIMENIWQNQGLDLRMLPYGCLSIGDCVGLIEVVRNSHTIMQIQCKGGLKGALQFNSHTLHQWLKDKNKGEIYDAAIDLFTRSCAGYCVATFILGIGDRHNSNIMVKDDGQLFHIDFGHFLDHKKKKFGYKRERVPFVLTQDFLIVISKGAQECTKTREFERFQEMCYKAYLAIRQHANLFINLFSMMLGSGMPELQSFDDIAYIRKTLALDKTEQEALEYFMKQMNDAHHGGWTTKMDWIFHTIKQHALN
# T30 sequence (Q15569 whole entry): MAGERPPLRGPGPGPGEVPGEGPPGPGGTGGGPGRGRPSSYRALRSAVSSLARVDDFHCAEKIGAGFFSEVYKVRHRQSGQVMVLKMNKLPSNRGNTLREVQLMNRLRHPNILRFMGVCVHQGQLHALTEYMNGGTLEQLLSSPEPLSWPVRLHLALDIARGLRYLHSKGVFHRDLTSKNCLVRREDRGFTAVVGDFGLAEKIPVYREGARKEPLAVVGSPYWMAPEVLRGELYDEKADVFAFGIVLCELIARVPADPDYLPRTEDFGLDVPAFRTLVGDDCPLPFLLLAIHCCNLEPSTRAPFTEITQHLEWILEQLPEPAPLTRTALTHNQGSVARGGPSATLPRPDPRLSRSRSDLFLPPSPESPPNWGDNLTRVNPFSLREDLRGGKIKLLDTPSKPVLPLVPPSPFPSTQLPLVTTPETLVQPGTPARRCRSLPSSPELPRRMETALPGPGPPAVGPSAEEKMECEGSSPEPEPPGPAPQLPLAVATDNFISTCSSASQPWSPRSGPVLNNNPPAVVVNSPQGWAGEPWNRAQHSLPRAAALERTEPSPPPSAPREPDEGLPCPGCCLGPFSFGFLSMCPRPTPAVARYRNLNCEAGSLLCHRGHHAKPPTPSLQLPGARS
smiles,measurement,setting,value
CN1CCN(C2CCC(n3cc(-c4ccc(Oc5ccccc5)cc4)c4c(N)ncnc43)CC2)CC1 (centres unmarked) [A-419259],% Control,[1],28%
same,% Control,[2],100%
same,% Control,[3],63%
same,% Control,[4],95%
same,% Control,[5],100%
same,% Control,[6],95%
same,% Control,[7],100%
same,% Control,[8],36%
same,% Control,[9],21%
same,% Control,[10],100%
same,% Control,[11],62%
same,% Control,[12],2.7%
same,% Control,[13],100%
same,% Control,[14],98%
same,% Control,[15],100%
same,% Control,[16],66%
same,% Control,[17],89%
same,% Control,[18],88%
same,% Control,[19],85%
same,% Control,[20],68%
same,% Control,[21],10%
same,% Control,[22],80%
same,% Control,[23],89%
same,% Control,[24],100%
same,% Control,[25],0.05%
same,% Control,[26],43%
same,% Control,[27],99%
same,% Control,[28],0.2%
same,% Control,[29],0.15%
same,% Control,[30],95%
same,% Control,[31],13%
same,% Control,[32],100%
same,% Control,[33],72%
same,% Control,[34],13%
same,% Control,[35],0%
same,% Control,[36],100%
same,% Control,[37],2.7%
same,% Control,[38],70%
same,% Control,[39],16%
same,% Control,[40],18%
same,% Control,[41],41%
